How the values were obtained:
MDSCs = assay: IFNγ of T cells co-cultured with pre-treated MDSCs; type: cell-based, BalbC mice; conditions: CD3/CD28 bead activation
Excerpt: Shown are IFNγ production/secretion levels of combined bulk CD4^+ and CD8^+ T cells from BalbC mice treated with either DMSO (black column) or L-fucose (red column) or co-cultured with MDSCs pre-treated with DMSO (aquamarine column) or with L-fucose (purple column). The T cells were activated using CD3/CD28 beads.

human CD4+ T cells = assay: CD3/CD28 human CD4+ T cell activation assay / IFNγ ELISA; type: cell-based
Experimental: Human CD4^+ T cells were isolated from fresh PBMC using a CD4^+ T cell negative selection isolation kit (Stem Cell Technologies, (Vancouver CA)) according to manufacturer's protocols. CD4^+ T cells were cultured in the presence of DMSO, 250 μM FUTi (Millapore Sigma (St. Louis, MO)), or 250 μM L-fucose 3 days prior to activation. After 3 days, the CD4^+ T cells were activated using anti-CD3/CD28 Dynabeads (ThermoFisher Scientific (Waltham, MA)) in a 1:1 bead: CD4^+ T cell ratio. After 24 h, supernatants were collected and IFNγ ELISA was performed according to manufacturer's protocols (Biolegend (San Diego, CA)).

## C[C@H](O)[C@@H](O)[C@@H](O)[C@H](O)C=O [L-fucose]
MDSCs
  MDSC-mediated suppression of T cell IFNγ production/secretion: completely reverts MDSC-mediated T cell suppression
Human CD4+ T cells; 250 μM, 3 days before CD3/CD28 activation
  increase of CD4+ T cell activation (IFNγ production): ~37%
Human CD4+ T cells; FIG. 13
  IFN-γ production relative to DMSO treated controls: increase

From patent US12642809B2, “Fucosylation and immune modulation in cancer” (H. LEE MOFFITT CANCER CENTER AND RESEARCH INSTITUTE, INC., priority 2019, dated 2026)
